Data on 34 compounds can be found in patent US9663475B2, “2 amino-3,4-dihydrcquinazoline derivatives and the use thereof as cathepsin D inhibitors” (Merck Patent GmbH, priority 2013, dated 2017).

The structures appear in SMILES notation. Non-standard residues stand in square brackets, D forms with d. Residues, ends and D or L forms follow the SMILES beside them. *: point of attachment. Sta = CC(C)C[C@H](N)[C@@H](O)CC(=O)O; Isovaleryl = CC(C)CC(=O)*

Chain of cathepsin D isolated from the human liver (P07339 65-161): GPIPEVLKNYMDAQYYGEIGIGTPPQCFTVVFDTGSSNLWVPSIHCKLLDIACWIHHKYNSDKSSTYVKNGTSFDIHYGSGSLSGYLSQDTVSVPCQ
Chain of cathepsin D isolated from the human liver (P07339 169-412): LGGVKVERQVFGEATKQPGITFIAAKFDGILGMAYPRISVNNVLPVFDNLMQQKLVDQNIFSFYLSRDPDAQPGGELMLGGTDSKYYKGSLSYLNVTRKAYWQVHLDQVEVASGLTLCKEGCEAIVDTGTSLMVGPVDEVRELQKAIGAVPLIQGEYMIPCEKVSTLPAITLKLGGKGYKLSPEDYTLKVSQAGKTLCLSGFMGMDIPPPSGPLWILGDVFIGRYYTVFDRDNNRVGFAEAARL

The first data set addresses cathepsin D isolated from the human liver (Homo sapiens (Human), UniProt P07339). Briefly: In-vitro fluorescence assay for identification of cathepsin D inhibitors. The class given is biochemical. The conditions noted are these: human liver cathepsin D 1.4 nM, pH 5.5, substrate 5 μM; read-out: Cath D IC50. The method, then: In order to identify modulators of cathepsin D activity, a continuous enzymatic test was carried out with a synthetic peptide which carries a fluorescent group (MCA=(7-methoxycoumarin-4-yl)acetyl) which is quenched by energy transfer from a Dpn (2,4 dinitrophenyl) group on the same molecule, in Greiner 384-well nb microtitre plates. Cleavage of the peptidic substrate by cathepsin D causes an increase in the fluorescence intensity. In order to determine the efficacy of substances, the time-dependent increase in the fluorescence intensity in the presence of the substance was compared with the time-dependent increase in fluorescence in the absence of substances. The reference substance used was pepstatin A (Sigma-Aldrich). The substrate used was MCA-GKPILFFRLK(Dnp)d-R—NH2 (Enzo Life Sciences, Lörach). The enzyme employed was cathepsin D isolated from the human liver (Sigma-Aldrich) in a final concentration of 1.4 nM. The test was carried out in 100 mM sodium acetate buffer, 1.25% (v/v) of DMSO, 0.25% (w/v) of Chaps, pH 5.5. 2 μl of each substance solution with serially diluted substance concentration were added to in each case 4 μl of cathepsin D solution and incubated at room temperature for 10 min. The reaction was started by addition of 2 μl of substrate solution (final concentration 5 μM). After carrying out a starting-point fluorescence measurement (excitation wavelength 340 nm/emission wavelength 450 nm) using an Envision multilabel reader (Perkin Elmer), the reaction was incubated at room temperature for 60 min. The amount of peptide fragment cleaved off during the reaction time was subsequently measured by determination of the increase in the fluorescence intensity at 450 nm (excitation wavelength 340 nm).
The IC50 values of the compounds according to the invention can be obtained from Table 2 from Example 1.
As usually defined, the IC50 is the midpoint of a concentration-inhibition curve. In the case of `NNc1nc2cc(C(F)(F)F)ccc2c(=O)n1C1Cc2ccccc2C1` [Compound A28, 2-hydrazino-3-indan-2-yl-7-trifluoromethyl-3H-quinazolin-4-one], the half-inhibitory concentration (IC50) was 24000 nM.
On the same count and under the same terms, then `CCN(CC)C(=O)c1ccc2c(c1)N=C(N)N(C1Cc3ccccc3C1)C2` [Compound A24, N,N-diethyl-2-amino-3-indan-2-yl-3,4-dihydroquinazoline-7-carboxamide], with 4200 nM; and `COc1ccc2c(c1OC)CC(N1Cc3ccc(Cl)cc3N=C1N)C2` (stereo not shown) [Compound A11, 7-chloro-3-(4,5-dimethoxyindan-2-yl)-3,4-dihydroquinazolin-2-ylamine], with 780 nM; and `COc1ccc2c(c1)C[C@H](N1Cc3ccc(C(F)(F)F)cc3N=C1N)C2` (single isomer, unassigned) [Compound A19], with 320 nM.
The same measure, in the same setting: the figure for `COc1ccc2c(c1)CN(C(=O)c1ccc3c(c1)N=C(N)N(C1Cc4ccccc4C1)C3)C2` [Compound A22, (2-amino-3-indan-2-yl-3,4-dihydroquinazolin-7-yl)-(5-methoxy-1,3-dihydroisoindol-2-yl)methanone] is 180 nM; for `COc1ccc2c(c1)CC(N1Cc3ccc(C(F)(F)F)cc3N=C1N)C2` (racemic) [Compound A16, 3-(5-methoxyindan-2-yl)-7-trifluoromethyl-3,4-dihydroquinazolin-2-ylamine] it is 170 nM; for `NC1=Nc2cc(C(=O)N3CCOc4ccccc43)ccc2CN1C1Cc2ccccc2C1` [Compound A30, (2-amino-3-indan-2-yl-3,4-dihydroquinazolin-7-yl)-(2,3-dihydrobenzo[1,4]oxazin-4-yl)methanone] it is 240 nM.
Still for that read-out and setting: the figure for `NC1=Nc2ccccc2CN1C1Cc2ccccc2C1` [Compound A2, 3-indan-2-yl-3,4-dihydroquinazolin-2-ylamine] is 2300 nM; for `COc1ccc2c(c1)C[C@@H](N1Cc3ccc(C(F)(F)F)cc3N=C1N)C2` (single isomer, unassigned) [Compound A18] it is 270 nM.
Regarding `NC1=Nc2ccccc2CN1C1Cc2ccccc2C1` [Compound A1, 3-indan-2-yl-3,4-dihydroquinazolin-2-ylamine], the 50% inhibitory concentration (IC50) was 2700 nM.
The same measure, in the same setting: the figure for `CO[C@@H]1c2ccccc2C[C@@H]1N1Cc2ccc(C(F)(F)F)cc2NC1=N` [Compound A31, 3-((1R,2S)-1-methoxyindan-2-yl)-7-trifluoromethyl-3,4-dihydro-1H-quinazolin-2-ylidenamine] is 2500 nM; for `NC1=Nc2cc(C(=O)N3CCCC3Cc3ccccc3)ccc2CN1C1Cc2ccccc2C1` (stereo not shown) [Compound A29, (2-amino-3-indan-2-yl-3,4-dihydroquinazolin-7-yl)-(2-benzylpyrrolidin-1-yl)methanone] it is 310 nM; for `NC1=Nc2cc(C(=O)N3CCc4ccccc43)ccc2CN1C1Cc2ccccc2C1` [Compound A21, (2-amino-3-indan-2-yl-3,4-dihydroquinazolin-7-yl)-(2,3-dihydroindol-1-yl)methanone] it is 220 nM.
Same read-out and setting: the figure for `NC1=Nc2cc(Cl)ccc2CN1C1Cc2ccccc2C1` [Compound A3, 7-chloro-3-indan-2-yl-3,4-di hydroquinazolin-2-ylamine] is 960 nM; for `COc1cc2c(cc1OC)CC(N1Cc3ccc(Cl)cc3N=C1N)C2` [Compound A9, 7-chloro-3-(5,6-dimethoxyindan-2-yl)-3,4-dihydroquinazolin-2-ylamine] it is 510 nM.
The same measure, in the same setting: then `NC1=Nc2cc(C(F)(F)F)ccc2CN1C1CCc2ccccc2C1` (stereo not shown) [Compound A20, 3-(1,2,3,4-tetrahydronaphthalen-2-yl)-7-trifluoromethyl-3,4-dihydroquinazolin-2-ylamine], with 3800 nM; and `CCN(CC)C(=O)c1ccc2c(c1)N=C(N)N(C1Cc3ccccc3C1)C2` [Compound A23, N,N-diethyl-2-amino-3-indan-2-yl-3,4-dihydroquinazoline-7-carboxamide], with 2900 nM.
With `NC1=Nc2cc(-c3ccccc3)ccc2CN1C1Cc2ccccc2C1` [Compound A5, 3-indan-2-yl-7-phenyl-3,4-dihydroquinazolin-2-ylamine], the IC50 came out at 2200 nM.
On to `Nc1nc2cc(C(F)(F)F)ccc2c(=O)n1C1Cc2ccccc2C1` [Compound A27, 2-amino-3-indan-2-yl-7-trifluoromethyl-3H-quinazolin-4-one], for which the IC50 was determined as 3300 nM.
On the same count and under the same terms, then `CCCc1ccc2c(c1)N=C(N)N(C1Cc3ccccc3C1)C2` [Compound A7, 3-indan-2-yl-7-propyl-3,4-dihydroquinazolin-2-ylamine], with 140 nM.
The same measure, in the same setting: then `NC1=Nc2cc(C(F)(F)F)ccc2CN1C1c2ccccc2-c2ccccc21` [Compound A15, 3-(9H-fluoren-9-yl)-7-trifluoromethyl-3,4-dihydroquinazolin-2-ylamine], with 1200 nM; and `NC1=Nc2cc(C(F)(F)F)ccc2CN1C1CCc2ccccc21` (stereo not shown) [Compound A13, 3-indan-1-yl-7-trifluoromethyl-3,4-dihydroquinazolin-2-ylamine], with 2500 nM.
Turning to `CCc1ccc2c(c1)N=C(N)N(C1Cc3ccc(OC)cc3C1)C2` (stereo not shown) [Compound A17, 7-ethyl-3-(5-methoxyindan-2-yl)-3,4-dihydroquinazolin-2-ylamine], the IC50 was found to be 270 nM.
As to `NC1=Nc2cc(C(F)(F)F)ccc2CN1C1Cc2ccccc2C1` [Compound A10, 3-indan-2-yl-7-trifluoromethyl-3,4-dihydroquinazolin-2-ylamine], the IC50 worked out at 300 nM.
Same read-out and setting: the figure for `COc1ccc2c(c1)CC(N1Cc3ccc(Cl)cc3N=C1N)C2` (stereo not shown) [Compound A14, 7-chloro-3-(5-methoxyindan-2-yl)-3,4-dihydroquinazolin-2-ylamine] is 620 nM.
Still for that read-out and setting: the figure for `NC1=Nc2cc(C(=O)N3CCOCC3)ccc2CN1C1Cc2ccccc2C1` [Compound A25, (2-amino-3-indan-2-yl-3,4-dihydroquinazolin-7-yl)morpholin-4-ylmethanone] is 2500 nM.
On the same count and under the same terms, the figure for `NC1=Nc2cc(C(=O)N3CCOCC3)ccc2CN1C1Cc2ccccc2C1` [Compound A26, (2-amino-3-indan-2-yl-3,4-dihydroquinazolin-7-yl)morpholin-4-ylmethanone] is 3000 nM; for `NC1=Nc2cccc(Cl)c2CN1C1Cc2ccccc2C1` [Compound A4, 5-chloro-3-indan-2-yl-3,4-di hydroquinazolin-2-ylamine] it is 8400 nM; for `NC1=Nc2cc(Cl)ccc2CN1C1CCCc2ccccc21` (stereo not shown) [Compound A6, 7-chloro-3-(1,2,3,4-tetrahydronaphthalen-1-yl)-3,4-dihydroquinazolin-2-ylamine] it is 1400 nM.
`COc1cccc2c1CC(N1Cc3ccc(Cl)cc3N=C1N)C2` (stereo not shown) [Compound A12, 7-chloro-3-(4-methoxyindan-2-yl)-3,4-dihydroquinazolin-2-ylamine]: the half-maximal inhibitory concentration (IC50) amounted to 810 nM.
Still for that read-out and setting: then `COc1cc2c(cc1OC)CC(N1Cc3ccc(Cl)cc3N=C1N)C2` [Compound A8, 7-chloro-3-(5,6-dimethoxyindan-2-yl)-3,4-dihydroquinazolin-2-ylamine], with 1100 nM.

System in another data set: not listed separately
Briefly: Stability in plasma (h/r/m) or at pH 1.2 or pH 7.4. Conditions: recovery after 4 h. The class given is in vitro ADME. The method, then:
Stable: Recovery 75% after 4 h.
Consider `COc1ccc2c(c1)CC(N1Cc3ccc(C(F)(F)F)cc3N=C1N)C2` (racemic) [Compound A16, 3-(5-methoxyindan-2-yl)-7-trifluoromethyl-3,4-dihydroquinazolin-2-ylamine], for which the “Stability in plasma (h/r/m) or at pH 1.2 or pH 7.4” value (from here on “Stability in plasma”) was “stab;e”.
On the same count and under the same terms, then `NC1=Nc2ccccc2CN1C1Cc2ccccc2C1` [Compound A1, 3-indan-2-yl-3,4-dihydroquinazolin-2-ylamine], with “stable (Stable: Recovery 75% after 4 h.)”; and `CCCc1ccc2c(c1)N=C(N)N(C1Cc3ccccc3C1)C2` [Compound A7, 3-indan-2-yl-7-propyl-3,4-dihydroquinazolin-2-ylamine], with “stable (Stable: Recovery 75% after 4 h.)”; and `CCc1ccc2c(c1)N=C(N)N(C1Cc3ccc(OC)cc3C1)C2` (stereo not shown) [Compound A17, 7-ethyl-3-(5-methoxyindan-2-yl)-3,4-dihydroquinazolin-2-ylamine], with “stable (Stable: Recovery 75% after 4 h.)”.
As for `NC1=Nc2cc(C(F)(F)F)ccc2CN1C1Cc2ccccc2C1` [Compound A10, 3-indan-2-yl-7-trifluoromethyl-3,4-dihydroquinazolin-2-ylamine], the “Stability in plasma” value is on record as “stable (Stable: Recovery 75% after 4 h.)”.
As to `COc1ccc2c(c1)CC(N1Cc3ccc(Cl)cc3N=C1N)C2` (stereo not shown) [Compound A14, 7-chloro-3-(5-methoxyindan-2-yl)-3,4-dihydroquinazolin-2-ylamine], the “Stability in plasma” value is on record as “stable (Stable: Recovery 75% after 4 h.)”.

The next data set concerns rat knee joint. The data set can be described thus: Anti-hyperalgesic effect in animals: carrageenan-induced knee joint inflammation, swelling and Hargreaves test. The class given is in vivo. Conditions: intra-articular, 30 minutes before CAR, TAC 10 μg/joint.
Procedure: In order to induce an inflammation reaction, a carrageenan solution (CAR, 1%, 50 μl) was injected intra-articularly on one side into a rat knee joint. The uninjected side was used for control purposes. Six animals per group were used. The threshold was determined by means of a micrometer screw (medial-lateral on the knee joint), and the thermal hyperalgesia was determined by means of a directed infrared light source by the Hargreaves method (Hargreaves et al., 1988) on the sole of the foot. […] Experimental description of thermal hyperalgesia (Hargreaves test): the experimental animal is placed in a plastic chamber on a quartz sheet. Before testing, the experimental animal is firstly given about 5-15 minutes time to familiarise itself with the environment. As soon as the experimental animal no longer moves so frequently after the familiarisation phase (end of the exploration phase), the infrared light source, whose focus is in the plane of the glass bottom, is positioned directly beneath the rear paw to be stimulated. […] Light reflected by the paw is recorded as long as the experimental animal sits still. Withdrawal of the paw interrupts this reflection, after which the infrared light source is switched off and the time from switching on to switching off is recorded. […]
In the case of `C[C@]12C=CC(=O)C=C1CC[C@H]1[C@@H]3C[C@@H](O)[C@](O)(C(=O)CO)[C@@]3(C)C[C@H](O)[C@@]12F` [TAC, Triamcinolone], the “reduction of CAR-induced swelling” value is “capable of reducing the CAR-induced swelling”.

A further data set concerns cartilage explant cultures.
Experiment: not given
Conditions: pH 5.5, explant cultures (mouse, cow or human); cited from earlier work.
As for `CC(C)CC(=O)N[C@H](C(=O)N[C@H](C(=O)N[C@@H](CC(C)C)[C@@H](O)CC(=O)N[C@@H](C)C(=O)N[C@@H](CC(C)C)[C@@H](O)CC(=O)O)C(C)C)C(C)C` [pepstatin] (Isovaleryl-VV[Sta]A[Sta]-OH), the “inhibition of autodigestion of the cartilage” value was “inhibited virtually completely”.
On to `CC(C)c1nc(CN(C)C(=O)N[C@H](C(=O)N[C@@H](Cc2ccccc2)C[C@H](O)[C@H](Cc2ccccc2)NC(=O)OCc2cncs2)C(C)C)cs1` [ritonavir], for which the “inhibition of autodigestion of the cartilage” value is given as “inhibited virtually completely”.
